What was measured:
Experiment in all cases: binding to AX14596 beads (HeLa lysate, SILAC MS)
PKD2 (PRKD2) = PKD2 (PRKD2) (Homo sapiens, UniProt Q9BZL6)
Protocol: (§1) Differentially SILAC-encoded cell lysates were either incubated with the inhibitor beads displaying immobilized AX14596 or control resin devoid of ligand. In parallel, the supernatant from the first binding step was subjected to a second incubation with the AX14596 resin (FIG. 4). The resulting three elution fractions were combined, resolved by gel electrophoresis, proteolytically digested and the relative abundance of the retained proteins quantified. Proteins showing considerable binding to the control resin were identified as non-specific interactors and therefore not considered further. […] These target-specific ratios were similar in “label switch” experiments (FIGS. 6a and 6c). The binding equilibrium was determined in parallel control SILAC experiments as well as the excess of the immobilized compound over its cellular targets, the excess preferably being a molar excess (FIG. 7 and FIG. 8).
(§2) Cysteine carbamidomethylation was set as a fixed modification and N-acetyl protein and oxidized methionine were allowed as variable modifications. Spectra that were determined to result from heavy labeled peptides in the pre-search detection of SILAC partners by MaxQuant were searched with the fixed modifications Lys^4, Lys^8, Arg^6 and Arg^10, whereas MS/MS spectra for which no SILAC state could be assigned before database searching were searched with Lys^4, Lys^8, Arg^6 and Arg^10 as variable modifications. The mass tolerance was set to 5 ppm for monoisotopic precursor ions and to 0.5 Da for MS/MS peaks. The minimum peptide length was set to 6 amino acids and up to three missed cleavages and three isotopically labeled amino acids were permitted per peptide. The accepted false discovery rate (FDR) was 1% for the proteins and peptides. The cut-off for the posterior error probability (PEP) of peptides was set to 10%. Peptide PEPs were determined by generating Mascot score and peptide-length-dependent histograms for both the forward and the reverse hits and then deriving the probability of a false identification for a given top-scoring peptide using Bayes' theorem. The PEPs of peptides belonging to the same proteins were then multiplied. Each peptide sequence was considered only once with the lowest PEP determined in case of multiple sequencing of the same isotopic pattern or of peptide species with different SILAC, charge or modification states. Proteins were then sorted according to their products of their peptide PEPs and included until a FDR of 1% was reached according to the fraction of reverse proteins contained in the protein list. In addition to the FDR threshold applied for protein identification, proteins were only included when they were identified with at least two peptides (of which one was required to be unique for the protein) and quantified if at least on quantifiable SILAC pair was associated with them. Outliers were not removed as protein ratios were calculated as the median instead of the average of all peptide ratios. For peptides shared among different identified proteins, SILAC ratios were only considered for the ratio of the protein identified with the highest number of unique peptides. Protein ratios for the different in vitro association experiments were corrected for the initial SILAC pooling ratio, which was determined from the median of protein ratios in pooled SILAC-encoded cell extracts.

CaMK2g (CAMK2G) = CaMK2g (CAMK2G) (Homo sapiens, UniProt Q13555)
Protocol: as §1, §2

[1] = target: p38a (MAPK14, IPI00221141) (Homo sapiens, UniProt Q16539)
Protocol: as §1, §2

BLMH = target: T1, BLMH (Homo sapiens, UniProt Q13867)
T1 construct: endogenous in cells; host or cells: HeLa S3
T1 sequence (Q13867 1-455): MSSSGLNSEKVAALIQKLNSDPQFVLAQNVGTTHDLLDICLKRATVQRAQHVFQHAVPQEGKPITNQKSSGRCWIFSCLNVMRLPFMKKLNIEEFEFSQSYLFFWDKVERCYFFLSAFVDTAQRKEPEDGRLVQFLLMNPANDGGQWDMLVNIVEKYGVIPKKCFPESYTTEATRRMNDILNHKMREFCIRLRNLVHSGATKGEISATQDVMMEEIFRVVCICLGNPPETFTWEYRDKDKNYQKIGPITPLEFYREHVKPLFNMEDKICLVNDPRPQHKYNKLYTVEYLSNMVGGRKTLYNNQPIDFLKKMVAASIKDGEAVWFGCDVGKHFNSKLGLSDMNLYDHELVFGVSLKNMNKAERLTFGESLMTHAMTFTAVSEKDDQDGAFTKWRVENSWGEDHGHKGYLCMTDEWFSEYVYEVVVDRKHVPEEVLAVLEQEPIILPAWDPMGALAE
Protocol: as §1, §2

Chain of CaMK2g (CAMK2G) (Q13555 whole entry): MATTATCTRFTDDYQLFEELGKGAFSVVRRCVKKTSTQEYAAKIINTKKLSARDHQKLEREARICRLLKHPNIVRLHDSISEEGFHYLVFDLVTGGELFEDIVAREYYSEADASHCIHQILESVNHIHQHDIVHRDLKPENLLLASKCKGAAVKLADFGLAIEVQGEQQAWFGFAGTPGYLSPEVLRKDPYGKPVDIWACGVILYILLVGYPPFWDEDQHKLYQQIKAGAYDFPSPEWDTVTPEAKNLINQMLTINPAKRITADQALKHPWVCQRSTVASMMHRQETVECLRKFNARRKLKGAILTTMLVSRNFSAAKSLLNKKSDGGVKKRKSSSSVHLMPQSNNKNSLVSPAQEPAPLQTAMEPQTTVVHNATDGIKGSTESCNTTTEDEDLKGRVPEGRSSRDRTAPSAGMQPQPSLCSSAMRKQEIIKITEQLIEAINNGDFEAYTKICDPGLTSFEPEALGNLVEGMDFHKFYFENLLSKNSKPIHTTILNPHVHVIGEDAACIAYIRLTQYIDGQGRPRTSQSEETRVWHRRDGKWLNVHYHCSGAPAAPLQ
Chain of PKD2 (PRKD2) (Q9BZL6 whole entry): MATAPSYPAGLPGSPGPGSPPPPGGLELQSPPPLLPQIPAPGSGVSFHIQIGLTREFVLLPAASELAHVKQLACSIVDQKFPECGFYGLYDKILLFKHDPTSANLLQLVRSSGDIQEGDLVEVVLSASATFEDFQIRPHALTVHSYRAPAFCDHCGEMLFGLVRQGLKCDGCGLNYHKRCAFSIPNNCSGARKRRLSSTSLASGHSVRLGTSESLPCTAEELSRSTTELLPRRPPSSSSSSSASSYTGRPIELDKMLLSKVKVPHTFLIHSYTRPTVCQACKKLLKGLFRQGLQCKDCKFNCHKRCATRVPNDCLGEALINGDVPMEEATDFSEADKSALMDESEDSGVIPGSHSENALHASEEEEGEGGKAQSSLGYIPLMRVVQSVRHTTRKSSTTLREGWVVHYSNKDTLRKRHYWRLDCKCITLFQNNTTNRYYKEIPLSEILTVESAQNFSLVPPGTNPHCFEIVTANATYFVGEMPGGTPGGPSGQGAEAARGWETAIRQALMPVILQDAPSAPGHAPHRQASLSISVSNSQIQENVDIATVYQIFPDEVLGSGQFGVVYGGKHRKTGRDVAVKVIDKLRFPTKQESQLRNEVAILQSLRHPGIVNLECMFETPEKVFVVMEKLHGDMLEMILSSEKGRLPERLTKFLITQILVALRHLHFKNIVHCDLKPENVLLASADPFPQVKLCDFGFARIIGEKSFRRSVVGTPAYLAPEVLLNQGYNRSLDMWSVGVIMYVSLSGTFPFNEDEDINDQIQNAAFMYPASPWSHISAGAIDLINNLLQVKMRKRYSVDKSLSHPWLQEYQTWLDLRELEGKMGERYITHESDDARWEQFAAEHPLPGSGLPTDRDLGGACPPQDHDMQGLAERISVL
Chain of p38a (MAPK14, IPI00221141) (Q16539 1-360 isoform Q16539-2): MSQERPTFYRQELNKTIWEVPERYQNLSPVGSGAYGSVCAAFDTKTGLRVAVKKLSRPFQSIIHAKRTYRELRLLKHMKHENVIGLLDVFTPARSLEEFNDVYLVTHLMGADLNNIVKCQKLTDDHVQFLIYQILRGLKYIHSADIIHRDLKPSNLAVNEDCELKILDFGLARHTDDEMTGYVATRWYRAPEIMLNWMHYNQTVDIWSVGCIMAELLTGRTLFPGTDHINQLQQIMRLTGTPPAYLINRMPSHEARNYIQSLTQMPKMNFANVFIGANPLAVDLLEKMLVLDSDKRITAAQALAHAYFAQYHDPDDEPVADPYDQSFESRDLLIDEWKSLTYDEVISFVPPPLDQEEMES

## COc1cc2ncnc(Nc3ccc(F)c(Cl)c3)c2cc1OCCCN [AX14596]
PKD2 (PRKD2)
  Ki: 385 µM
  r (3 mg/1 mg lysate): 2.53
  r (5 h/2.5 h inc. time): 0.96
  rAVERAGE (2. inc/1. inc): 0.79
  rAVERAGE (control/1. inc): 0.08
CaMK2g (CAMK2G)
  Ki: 93.4 µM
  r (3 mg/1 mg lysate): 2.45
  r (5 h/2.5 h inc. time): 1.17
  rAVERAGE (2. inc/1. inc): 0.48
  rAVERAGE (control/1. inc): 0.04
[1]
  Ki: 168 µM
  r (3 mg/1 mg lysate): 2.87
  rAVERAGE (2. inc/1. inc): 0.63
  rAVERAGE (control/1. inc): 0.03
BLMH
  Ki: 53.6 µM
  r (3 mg/1 mg lysate): 11.91
  r (5 h/2.5 h inc. time): 1.31
  rAVERAGE (2. inc/1. inc): 0.35
  rAVERAGE (control/1. inc): 0.08

— patent US8959984B2, “Proteome-wide quantification of small molecule binding to cellular target proteins” (priority 2007, dated 2015)
